{"source": "paper PMC5218480", "about": "(PLoS ONE, 2017)", "tested_on": "MV-4-11 cells", "assay": "Gene expression microarray analysis (Affymetrix PrimeView) and GSEA", "format": "cell-based, human", "set-up": "RFU PODN (11730768_x_at) / Fold change /veh PODN (11730768_x_at) / RFU LINC00158 (11744669_a_at) / Fold change /veh LINC00158 (11744669_a_at) / RFU DUSP10 (11751237_a_at) / Fold change /veh DUSP10 (11751237_a_at) / RFU ID3 (11757404_x_at) / Fold change /veh ID3 (11757404_x_at) / RFU PLEKHG5 (11737974_s_at) / Fold change /veh PLEKHG5 (11737974_s_at) / RFU LRRC4B (11730491_at) / Fold change /veh LRRC4B (11730491_at) / RFU GIMAP4 (11747438_a_at) / Fold change /veh GIMAP4 (11747438_a_at) / RFU KRT8 (11758183_x_at) / Fold change /veh KRT8 (11758183_x_at) / RFU CNN1 (11734310_a_at) / Fold change /veh CNN1 (11734310_a_at) / RFU VPS37D (11726825_at) / Fold change /veh VPS37D (11726825_at) / RFU C10orf10 (11716522_x_at) / Fold change /veh C10orf10 (11716522_x_at) / RFU KIR2DL2 /// KIR2DL4 /// KIR2DL5A /// KIR2DL5B /// KIR2DS1 /// KIR2DS2 /// KIR2DS3 /// KIR2DS4 /// KIR3DL3 /// KIR3DL3 /// KIR3DS1 (11738374_at) / Fold change /veh KIR2DL2 /// KIR2DL4 /// KIR2DL5A /// KIR2DL5B /// KIR2DS1 /// KIR2DS2 /// KIR2DS3 /// KIR2DS4 /// KIR3DL3 /// KIR3DL3 /// KIR3DS1 (11738374_at) / RFU C1QL1 (11718748_at) / Fold change /veh C1QL1 (11718748_at) / RFU TMPRSS4 (11747572_a_at) / Fold change /veh TMPRSS4 (11747572_a_at) / RFU HAMP (11756126_x_at) / Fold change /veh HAMP (11756126_x_at) / RFU RNFT2 (11725882_a_at) / Fold change /veh RNFT2 (11725882_a_at) / RFU NR4A2 (11747474_a_at) / Fold change /veh NR4A2 (11747474_a_at) / RFU ABCC12 (11746883_a_at) / Fold change /veh ABCC12 (11746883_a_at) / RFU TMEM136 (11760407_x_at) / Fold change /veh TMEM136 (11760407_x_at) / RFU CLDN22 /// WWC2 (11732394_at) / Fold change /veh CLDN22 /// WWC2 (11732394_at) / RFU HLA-DPB1 (11760878_x_at) / Fold change /veh HLA-DPB1 (11760878_x_at) / RFU SPINT1 (11716480_a_at) / Fold change /veh SPINT1 (11716480_a_at) / RFU GAP43 (11754022_s_at) / Fold change /veh GAP43 (11754022_s_at) / RFU A4GNT (11735810_at) / Fold change /veh A4GNT (11735810_at) / RFU PRB3 (11715151_x_at) / Fold change /veh PRB3 (11715151_x_at) / RFU TUBB4B (11761932_at) / Fold change /veh TUBB4B (11761932_at) / RFU CAPN14 (11732068_a_at) / Fold change /veh CAPN14 (11732068_a_at) / RFU TMCC2 (11721928_a_at) / Fold change /veh TMCC2 (11721928_a_at) / RFU IRGQ (11745062_a_at) / Fold change /veh IRGQ (11745062_a_at) / RFU FAM174B (11720279_a_at) / Fold change /veh FAM174B (11720279_a_at) / RFU TMPRSS4 (11748680_a_at) / Fold change /veh TMPRSS4 (11748680_a_at) / RFU FAM212B (11763350_a_at) / Fold change /veh FAM212B (11763350_a_at) / RFU PLEKHG5 (11743358_a_at) / Fold change /veh PLEKHG5 (11743358_a_at) / RFU ZSCAN30 (11745921_a_at) / Fold change /veh ZSCAN30 (11745921_a_at) / RFU CMKLR1 (11741424_a_at) / Fold change /veh CMKLR1 (11741424_a_at) / RFU LOC101060620 /// MAPK8IP1 (11723275_at) / Fold change /veh LOC101060620 /// MAPK8IP1 (11723275_at) / RFU SPTSSB (11747773_x_at) / Fold change /veh SPTSSB (11747773_x_at) / RFU PRSS12 (11739890_at) / Fold change /veh PRSS12 (11739890_at) / RFU BIN1 (11741810_x_at) / Fold change /veh BIN1 (11741810_x_at) / RFU WNT11 (11732464_a_at) / Fold change /veh WNT11 (11732464_a_at) / RFU C10orf10 (11716521_a_at) / Fold change /veh C10orf10 (11716521_a_at) / RFU C5orf56 (11738089_at) / Fold change /veh C5orf56 (11738089_at) / RFU CYB561 (11721691_x_at) / Fold change /veh CYB561 (11721691_x_at) / RFU ANKRD19P (11752326_a_at) / Fold change /veh ANKRD19P (11752326_a_at) / RFU OR2T12 /// OR2T33 /// OR2T8 (11738714_s_at) / Fold change /veh OR2T12 /// OR2T33 /// OR2T8 (11738714_s_at) / RFU VCAN (11748164_a_at) / Fold change /veh VCAN (11748164_a_at) / RFU JSRP1 (11732532_at) / Fold change /veh JSRP1 (11732532_at) / RFU KRTAP10-11 (11738290_x_at) / Fold change /veh KRTAP10-11 (11738290_x_at) / RFU MYO3A (11730013_a_at) / Fold change /veh MYO3A (11730013_a_at) / RFU EBF3 (11725865_a_at) / Fold change /veh EBF3 (11725865_a_at) / RFU CAMK2N1 (11719241_x_at) / Fold change /veh CAMK2N1 (11719241_x_at) / RFU C5orf56 (11738088_a_at) / Fold change /veh C5orf56 (11738088_a_at) / RFU OLFML3 (11715873_a_at) / Fold change /veh OLFML3 (11715873_a_at) / RFU LOC100653217 /// NTM (11731650_a_at) / Fold change /veh LOC100653217 /// NTM (11731650_a_at) / RFU MAPK11 (11762145_a_at) / Fold change /veh MAPK11 (11762145_a_at) / RFU FIZ1 (11724087_x_at) / Fold change /veh FIZ1 (11724087_x_at) / RFU OASL (11726364_x_at) / Fold change /veh OASL (11726364_x_at) / RFU SOX15 (11748057_x_at) / Fold change /veh SOX15 (11748057_x_at) / RFU CD79A (11719716_a_at) / Fold change /veh CD79A (11719716_a_at) / RFU HIST1H1D (11736915_at) / Fold change /veh HIST1H1D (11736915_at) / RFU CASKIN2 (11723855_a_at) / Fold change /veh CASKIN2 (11723855_a_at) / RFU LOC730098 (11760151_x_at) / Fold change /veh LOC730098 (11760151_x_at) / RFU OR4N2 (11742367_at) / Fold change /veh OR4N2 (11742367_at) / RFU PRRT2 (11749266_a_at) / Fold change /veh PRRT2 (11749266_a_at) / RFU SNX32 (11753110_a_at) / Fold change /veh SNX32 (11753110_a_at) / RFU CDHR5 (11726645_a_at) / Fold change /veh CDHR5 (11726645_a_at) / RFU RCAN1 (11760418_a_at) / Fold change /veh RCAN1 (11760418_a_at) / RFU FAM167A (11723789_a_at) / Fold change /veh FAM167A (11723789_a_at) / RFU FAM26E (11764081_at) / Fold change /veh FAM26E (11764081_at) / RFU ISYNA1 (11749810_s_at) / Fold change /veh ISYNA1 (11749810_s_at) / RFU ACY1 (11761880_at) / Fold change /veh ACY1 (11761880_at) / RFU 11764098_at / Fold change /veh 11764098_at / RFU SAMD14 (11745864_x_at) / Fold change /veh SAMD14 (11745864_x_at) / RFU NPB (11741838_a_at) / Fold change /veh NPB (11741838_a_at) / RFU TMPRSS6 (11731388_a_at) / Fold change /veh TMPRSS6 (11731388_a_at) / RFU KRTAP10-2 (11738614_at) / Fold change /veh KRTAP10-2 (11738614_at) / RFU ARHGAP8 /// PRR5-ARHGAP8 (11727945_x_at) / Fold change /veh ARHGAP8 /// PRR5-ARHGAP8 (11727945_x_at) / RFU KRTAP5-7 /// NADSYN1 (11734609_at) / Fold change /veh KRTAP5-7 /// NADSYN1 (11734609_at) / RFU RASL12 (11751679_a_at) / Fold change /veh RASL12 (11751679_a_at) / RFU CDKN2B (11736163_a_at) / Fold change /veh CDKN2B (11736163_a_at) / RFU PRF1 (11729649_at) / Fold change /veh PRF1 (11729649_at) / RFU, ZNF638 /// ZNF638-IT1 / Fold change vs veh, ZNF638 /// ZNF638-IT1 / RFU, PANK3 / Fold change vs veh, PANK3 / RFU, SH3YL1 / Fold change vs veh, SH3YL1 / RFU, ZEB2 / Fold change vs veh, ZEB2 / RFU, NRIP1 / Fold change vs veh, NRIP1 / RFU, PTTG1IP / Fold change vs veh, PTTG1IP / RFU, CAPN2 / Fold change vs veh, CAPN2 / RFU, MED14 / Fold change vs veh, MED14 / RFU, SNORA58 / Fold change vs veh, SNORA58 / RFU, C1orf63 / Fold change vs veh, C1orf63 / RFU, LRRFIP1 / Fold change vs veh, LRRFIP1 / RFU, NDUFAF7 / Fold change vs veh, NDUFAF7 / RFU, SLC12A2 / Fold change vs veh, SLC12A2 / RFU, IBTK / Fold change vs veh, IBTK / RFU, ESF1 / Fold change vs veh, ESF1 / Fold change vs veh, TMEM50B / RFU, TAOK1 / Fold change vs veh, TAOK1 / RFU, ACBD3 / Fold change vs veh, ACBD3 / RFU, TMA16 / Fold change vs veh, TMA16 / RFU, RWDD3 / Fold change vs veh, RWDD3 / RFU, BCAT1 / Fold change vs veh, BCAT1 / RFU, EDEM3 / Fold change vs veh, EDEM3 / RFU, TMEM33 / Fold change vs veh, TMEM33 / RFU, WDR75 / Fold change vs veh, WDR75 / RFU, AHCTF1 / Fold change vs veh, AHCTF1 / RFU, TFRC / Fold change vs veh, TFRC / RFU, ZDHHC17 / Fold change vs veh, ZDHHC17 / RFU, NOM1 / Fold change vs veh, NOM1 / RFU, ARL8B / Fold change vs veh, ARL8B / RFU, ZBTB11 / Fold change vs veh, ZBTB11 / RFU, TAMM41 / Fold change vs veh, TAMM41 / RFU, KIAA1704 /// LOC100996395 / Fold change vs veh, KIAA1704 /// LOC100996395 / RFU, ING1 / Fold change vs veh, ING1 / RFU, TRMT61B / Fold change vs veh, TRMT61B / RFU, FUBP3 / Fold change vs veh, FUBP3 / RFU, TP53 / Fold change vs veh, TP53 / RFU, TNKS2 / Fold change vs veh, TNKS2 / RFU, ZFP14 / Fold change vs veh, ZFP14 / RFU, ACTR2 / Fold change vs veh, ACTR2 / RFU, PPP3R1 / Fold change vs veh, PPP3R1 / RFU, PIK3R1 / Fold change vs veh, PIK3R1 / RFU, HNRNPA1 / Fold change vs veh, HNRNPA1 / RFU, RNF170 / Fold change vs veh, RNF170 / RFU, ZNF28 / Fold change vs veh, ZNF28 / RFU, RNGTT / Fold change vs veh, RNGTT / RFU, OGT / Fold change vs veh, OGT / RFU, BRD1 / Fold change vs veh, BRD1 / RFU, MARS / Fold change vs veh, MARS / RFU, ZNF655 / Fold change vs veh, ZNF655 / RFU, FAHD1 / Fold change vs veh, FAHD1 / RFU, BDP1 / Fold change vs veh, BDP1 / RFU, LRRCC1 / Fold change vs veh, LRRCC1 / RFU, ARID1A / Fold change vs veh, ARID1A / RFU, ZNF146 / Fold change vs veh, ZNF146 / RFU, ZNF330 / Fold change vs veh, ZNF330 / RFU, GPN3 / Fold change vs veh, GPN3 / RFU, C9orf123 / Fold change vs veh, C9orf123 / RFU, N4BP2L2 / Fold change vs veh, N4BP2L2 / RFU, ARFIP1 / Fold change vs veh, ARFIP1 / RFU, FAM179B / Fold change vs veh, FAM179B / RFU, BCL10 / Fold change vs veh, BCL10 / RFU, UHRF1BP1L / Fold change vs veh, UHRF1BP1L / RFU, BET1 / Fold change vs veh, BET1 / RFU, CNOT2 / Fold change vs veh, CNOT2 / RFU, ZNF268 / Fold change vs veh, ZNF268 / Fold change vs veh, ZNF507 / RFU, DGCR2 / Fold change vs veh, DGCR2 / RFU, WDSUB1 / Fold change vs veh, WDSUB1 / Fold change vs veh, HSP90B1 /// MIR3652 / RFU, ADSS / Fold change vs veh, ADSS / RFU, GK / Fold change vs veh, GK / RFU, ZNF148 / Fold change vs veh, ZNF148 / RFU, TAF9 / Fold change vs veh, TAF9 / RFU, SLC1A5 / Fold change vs veh, SLC1A5 / RFU, SLMO2 / Fold change vs veh, SLMO2 / RFU, ABCC4 / Fold change vs veh, ABCC4 / RFU, LOC101060439 /// RAP1B / Fold change vs veh, LOC101060439 /// RAP1B / RFU, RFX7 / Fold change vs veh, RFX7 / RFU, GTPBP10 / Fold change vs veh, GTPBP10 / RFU, CNEP1R1 / Fold change vs veh, CNEP1R1 / RFU, BIVM-ERCC5 /// ERCC5 / Fold change vs veh, BIVM-ERCC5 /// ERCC5 / RFU, ILF3 / Fold change vs veh, ILF3 / RFU 11762660_at / Fold change /veh 11762660_at / RFU VCAN (11757783_s_at) / Fold change /veh VCAN (11757783_s_at) / RFU DDX43 (11728927_at) / Fold change /veh DDX43 (11728927_at) / RFU KRT8 (11758188_x_at) / Fold change /veh KRT8 (11758188_x_at) / RFU NKD1 (11759106_at) / Fold change /veh NKD1 (11759106_at) / RFU SRD5A1 (11742802_a_at) / Fold change /veh SRD5A1 (11742802_a_at) / RFU TPSAB1 /// TPSB2 (11721975_s_at) / Fold change /veh TPSAB1 /// TPSB2 (11721975_s_at) / RFU GSTM3 (11746129_a_at) / Fold change /veh GSTM3 (11746129_a_at) / RFU IL23R (11737362_x_at) / Fold change /veh IL23R (11737362_x_at) / RFU TMEM51 (11727254_a_at) / Fold change /veh TMEM51 (11727254_a_at) / RFU PIWIL2 (11732686_x_at) / Fold change /veh PIWIL2 (11732686_x_at) / RFU ORM1 (11744905_x_at) / Fold change /veh ORM1 (11744905_x_at) / RFU CCDC152 (11743942_at) / Fold change /veh CCDC152 (11743942_at) / RFU ECM1 (11717891_a_at) / Fold change /veh ECM1 (11717891_a_at) / RFU IL23R (11748794_a_at) / Fold change /veh IL23R (11748794_a_at) / RFU TNFAIP8L3 (11732012_x_at) / Fold change /veh TNFAIP8L3 (11732012_x_at) / RFU MBOAT4 (11741988_at) / Fold change /veh MBOAT4 (11741988_at) / RFU 11764193_at / Fold change /veh 11764193_at / RFU TMEM53 (11763286_at) / Fold change /veh TMEM53 (11763286_at) / RFU MAGEB2 (11727129_at) / Fold change /veh MAGEB2 (11727129_at) / RFU TMEM200A (11744735_a_at) / Fold change /veh TMEM200A (11744735_a_at) / RFU CCDC152 (11751479_a_at) / Fold change /veh CCDC152 (11751479_a_at) / RFU FAM211A (11726209_a_at) / Fold change /veh FAM211A (11726209_a_at) / RFU RGS16 (11746705_a_at) / Fold change /veh RGS16 (11746705_a_at) / RFU VCAN (11755009_s_at) / Fold change /veh VCAN (11755009_s_at) / RFU RHOB (11743442_s_at) / Fold change /veh RHOB (11743442_s_at) / RFU RGS16 (11720943_a_at) / Fold change /veh RGS16 (11720943_a_at) / RFU RGS16 (11720944_at) / Fold change /veh RGS16 (11720944_at) / RFU, VPS4B / Fold change vs veh, VPS4B / RFU, CREB1 / Fold change vs veh, CREB1 / RFU, DNAJC13 / Fold change vs veh, DNAJC13 / RFU, GNAQ / Fold change vs veh, GNAQ / RFU, CDK5R1 / Fold change vs veh, CDK5R1 / RFU, ZRANB3 / Fold change vs veh, ZRANB3 / RFU, CUL4A / Fold change vs veh, CUL4A / RFU, CCNY / Fold change vs veh, CCNY / RFU, UFL1 / Fold change vs veh, UFL1 / RFU, COG3 / Fold change vs veh, COG3 / RFU, DIAPH2 / Fold change vs veh, DIAPH2 / RFU, SKA2 / Fold change vs veh, SKA2 / RFU, AFF3 / Fold change vs veh, AFF3 / RFU, LMF1 / Fold change vs veh, LMF1 / RFU, IPO11 / Fold change vs veh, IPO11 / RFU, DFFB / Fold change vs veh, DFFB / RFU, FOXP1 / Fold change vs veh, FOXP1 / RFU, CARD8 / Fold change vs veh, CARD8 / RFU, STRN3 / Fold change vs veh, STRN3 / RFU, ADK / Fold change vs veh, ADK / RFU, RASSF2 / Fold change vs veh, RASSF2 / RFU, WIPF1 / Fold change vs veh, WIPF1 / RFU, LARP1B / Fold change vs veh, LARP1B / RFU, RASA1 / Fold change vs veh, RASA1 / RFU, RB1 / Fold change vs veh, RB1 / RFU, PPFIA1 / Fold change vs veh, PPFIA1 / RFU, MAT2A / Fold change vs veh, MAT2A / RFU, CCT5 / Fold change vs veh, CCT5 / RFU, WDR92 / Fold change vs veh, WDR92 / RFU, CUX1 / Fold change vs veh, CUX1 / RFU, TTC7A / Fold change vs veh, TTC7A / RFU, TMEM135 / Fold change vs veh, TMEM135 / RFU, DEPTOR / Fold change vs veh, DEPTOR / RFU, CPM / Fold change vs veh, CPM / RFU, DNAJB6 / Fold change vs veh, DNAJB6 / RFU, CACNA2D3 / Fold change vs veh, CACNA2D3 / RFU, DTX4 / Fold change vs veh, DTX4 / RFU, TFCP2 / Fold change vs veh, TFCP2 / RFU, GMCL1 /// GMCL1P1 / Fold change vs veh, GMCL1 /// GMCL1P1 / RFU, AEBP2 / Fold change vs veh, AEBP2 / RFU, SNHG1 /// SNORD22 /// SNORD25 /// SNORD26 /// SNORD27 /// SNORD28 /// SNORD29 /// SNORD31 / Fold change vs veh, SNHG1 /// SNORD22 /// SNORD25 /// SNORD26 /// SNORD27 /// SNORD28 /// SNORD29 /// SNORD31 / Fold change (Aza/veh), C12orf56 (ProbeSet 11735607_a_at) / Fold change (ACY-1035/veh), C12orf56 (ProbeSet 11735607_a_at) / Fold change (Aza/veh), FGFR1OP (ProbeSet 11751329_s_at) / Fold change (ACY-1035/veh), FGFR1OP (ProbeSet 11751329_s_at) / Fold change (Aza/veh), VPS36 (ProbeSet 11739960_a_at) / Fold change (ACY-1035/veh), VPS36 (ProbeSet 11739960_a_at) / RFU SYPL1 (11715823_x_at) / Fold change /veh SYPL1 (11715823_x_at) / RFU IGFBP7 (11715501_s_at) / Fold change /veh IGFBP7 (11715501_s_at) / RFU REEP3 (11722064_at) / Fold change /veh REEP3 (11722064_at) / RFU IGLL1 (11728026_x_at) / Fold change /veh IGLL1 (11728026_x_at): dose or concentration left out as unconfirmed", "conditions": "MV-4-11 cells, 48 hours"}
{"smiles": "Nc1ncn([C@@H]2O[C@H](CO)[C@@H](O)[C@H]2O)c(=O)n1", "note": "[azacitidine]", "values": [{"measurement": "Fold change /veh KRTAP10-2 (11738614_at)", "result": 0.93}]}
